Measured values taken from PubChem BioAssay AID248 (DTP/NCI, 2004).
“And” between values parts separate entries of the source, which are not always exact repeats. Identical values can stand only once. Inconclusive results and toxic doses are left out.

Tested on: L1210 leukemia ip in BDF1 mice, survival T/C
Assay: NCI In Vivo Anticancer Drug Screen. Data for tumor model L1210 Leukemia (intraperitoneal) in B6D2F1 (BDF1) mice
Settings: endpoint: mean survival time, higher = longer survival
How it was run: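 Antitumor effect is assessed in tumor-bearing animals. Survival in the compound arm is compared with a vehicle-dosed control arm and expressed as their quotient.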

[1] = dose: 100.0 mg/kg/injection, schedule: Q04DX003 (ip), vehicle: saline with Tween-80
[2] = dose: 200.0 mg/kg/injection, schedule: Q04DX003 (ip), vehicle: saline with Tween-80
[3] = dose: 400.0 mg/kg/injection, schedule: Q04DX003 (ip), vehicle: saline with Tween-80
[4] = dose: 100.0 mg/kg/injection, schedule: Q04DX003 (ip), vehicle: saline
[5] = dose: 200.0 mg/kg/injection, schedule: Q04DX003 (ip), vehicle: saline
[6] = dose: 400.0 mg/kg/injection, schedule: Q04DX003 (ip), vehicle: saline
[7] = dose: 100.0 mg/kg/injection, schedule: Q01DX001 (ip), vehicle: saline
[8] = dose: 200.0 mg/kg/injection, schedule: Q01DX001 (ip), vehicle: saline
[9] = dose: 400.0 mg/kg/injection, schedule: Q01DX001 (ip), vehicle: saline
[10] = dose: 50.0 mg/kg/injection, schedule: Q04DX002 (ip), vehicle: Klucel (hydroxypropylcellulose) (HPC)
[11] = dose: 100.0 mg/kg/injection, schedule: Q04DX002 (ip), vehicle: Klucel (hydroxypropylcellulose) (HPC)
[12] = dose: 200.0 mg/kg/injection, schedule: Q04DX002 (ip), vehicle: Klucel (hydroxypropylcellulose) (HPC)
[13] = dose: 100.0 mg/kg/injection, schedule: Q04DX003 (ip), vehicle: Klucel (hydroxypropylcellulose) (HPC)
[14] = dose: 12.5 mg/kg/injection, schedule: Q01DX009 (ip), vehicle: Klucel (hydroxypropylcellulose) (HPC)
[15] = dose: 25.0 mg/kg/injection, schedule: Q01DX009 (ip), vehicle: Klucel (hydroxypropylcellulose) (HPC)
[16] = dose: 50.0 mg/kg/injection, schedule: Q01DX009 (ip), vehicle: Klucel (hydroxypropylcellulose) (HPC)
[17] = dose: 50.0 mg/kg/injection, schedule: Q01DX009 (ip), vehicle: saline
[18] = dose: 100.0 mg/kg/injection, schedule: Q01DX009 (ip), vehicle: saline
[19] = dose: 200.0 mg/kg/injection, schedule: Q01DX009 (ip), vehicle: saline
[20] = dose: 100.0 mg/kg/injection, schedule: Q01DX001 (ip), vehicle: DMSO
[21] = dose: 100.0 mg/kg/injection, schedule: Q01DX009 (ip), vehicle: Klucel (hydroxypropylcellulose) (HPC)
[22] = dose: 200.0 mg/kg/injection, schedule: Q01DX009 (ip), vehicle: Klucel (hydroxypropylcellulose) (HPC)
[23] = dose: 400.0 mg/kg/injection, schedule: Q04DX002 (ip), vehicle: Klucel (hydroxypropylcellulose) (HPC)
[24] = dose: 50.0 mg/kg/injection, schedule: Q04DX003 (ip), vehicle: saline

COc1ccc(Nc2nc(N)nc(CNc3ccc(C)cc3)n2)cc1
T/C [1]: 94 % of control
T/C [2]: 92 % of control
T/C [3]: 96 % of control

O=C(O)CCCCCn1nnc2c(=O)[nH]cnc21
T/C [4]: 106 % of control
T/C [5]: 106 % of control
T/C [6]: 101 % of control

Clc1cccc(N2CCN(c3c4c(nc5ccccc35)CCCCC4)CC2)c1
T/C [7]: 93 % of control
T/C [8]: 88 % of control
T/C [9]: 90 % of control

CN1C(c2ccccc2)=CN(Cc2ccccc2)C=C1c1ccccc1
T/C [10]: 103 % of control
T/C [11]: 100 % of control
T/C [12]: 97 % of control

CCCCC(=O)N/N=C/c1ccc(N(C)C)cc1Cl
T/C [7]: 93 % of control
T/C [8]: 93 % of control
T/C [9]: 96 % of control

CCN(CC)CC(=O)NCC(CCN1CCOCC1)c1cccc2ccccc12 (stereo not given)
T/C [4]: 96 % of control
T/C [5]: 100 % of control
T/C [6]: 93 % of control

COc1nccnn1
T/C (dose: 100.0 mg/kg/injection, schedule: Q01DX001 (ip), vehicle: saline with Tween-80): 93 % of control
T/C (dose: 200.0 mg/kg/injection, schedule: Q01DX001 (ip), vehicle: saline with Tween-80): 103 % of control
T/C (dose: 400.0 mg/kg/injection, schedule: Q01DX001 (ip), vehicle: saline with Tween-80): 101 % of control

CC(=O)C(C(C)=O)C1C=CCC1 (stereo not given)
T/C [1]: 96 % of control
T/C [2]: 107 % of control
T/C [3]: 89 % of control

O=[N+]([O-])c1ccc(N=C=S)cc1
T/C (dose: 25.0 mg/kg/injection, schedule: Q04DX003 (ip), vehicle: Klucel (hydroxypropylcellulose) (HPC)): 95 % of control
T/C (dose: 50.0 mg/kg/injection, schedule: Q04DX003 (ip), vehicle: Klucel (hydroxypropylcellulose) (HPC)): 95 % of control
T/C [13]: 93 % of control

O=C(Nc1ccc(S(=O)(=O)NC2CCCCC2)cc1)Oc1ccc([N+](=O)[O-])cc1
T/C [7]: 96 % of control
T/C [8]: 100 % of control
T/C [9]: 100 % of control

Clc1c(C(Cl)(Cl)Cl)nc2ccccc2c1Cl
T/C [14]: 115 % of control
T/C [15]: 107 % of control
T/C [16]: 86 % of control

CC(=O)OC12C=C(C)C(C3C(=O)OC(=O)C31)C(C)(C)C2 (stereo not given)
T/C [17]: 97 % of control
T/C [18]: 92 % of control
T/C [19]: 102 % of control

CC(C)CCCC(C)CCCC(C)CCCC(C)CC(=O)O (stereo not given)
T/C (dose: 100.0 mg/kg/injection, schedule: Q01DX001 (ip), vehicle: olive oil, sesame oil, peanut oil): 103 % of control
T/C (dose: 200.0 mg/kg/injection, schedule: Q01DX001 (ip), vehicle: olive oil, sesame oil, peanut oil): 101 % of control
T/C (dose: 400.0 mg/kg/injection, schedule: Q01DX001 (ip), vehicle: olive oil, sesame oil, peanut oil): 91 % of control

Nc1ncnc(N)c1NC(=O)c1cc(Br)c(OCc2ccccc2)c(Br)c1
T/C [20]: 95 % of control
T/C (dose: 200.0 mg/kg/injection, schedule: Q01DX001 (ip), vehicle: DMSO): 95 % of control
T/C (dose: 400.0 mg/kg/injection, schedule: Q01DX001 (ip), vehicle: DMSO): 95 % of control

CCc1c(C#N)oc2ccc(O)cc12
T/C [21]: 96 % of control
T/C [11]: 95 % of control
T/C [22]: 91 % of control
T/C [12]: 101 % of control
T/C [23]: 95 % of control

N#CC(=N)C(C#N)=Nc1c(O)[nH]c2ccccc12
T/C (dose: 25.0 mg/kg/injection, schedule: Q01DX001 (ip), vehicle: DMSO): 93 % of control
T/C (dose: 25.0 mg/kg/injection, schedule: Q01DX009 (ip), vehicle: DMSO): 92 % of control
T/C (dose: 50.0 mg/kg/injection, schedule: Q01DX001 (ip), vehicle: DMSO): 97 % of control
T/C (dose: 50.0 mg/kg/injection, schedule: Q01DX009 (ip), vehicle: DMSO): 91 % of control
T/C [20]: 97 % of control and 102 % of control

CCS(=O)(=O)Nc1cccc(Nc2c3cccc(C)c3nc3c(C)cccc23)c1OC
T/C (dose: 5.5 mg/kg/injection, schedule: Q01DX009 (ip), vehicle: saline): 122 % of control
T/C (dose: 11.0 mg/kg/injection, schedule: Q04DX003 (ip), vehicle: saline): 113 % of control
T/C (dose: 12.5 mg/kg/injection, schedule: Q01DX009 (ip), vehicle: saline with Tween-80): 155 % of control
T/C (dose: 12.5 mg/kg/injection, schedule: Q01DX009 (sc), vehicle: Klucel (hydroxypropylcellulose) (HPC)): 112 % of control
T/C (dose: 16.0 mg/kg/injection, schedule: Q04DX003 (ip), vehicle: saline): 114 % of control
T/C (dose: 25.0 mg/kg/injection, schedule: Q01DX009 (ip), vehicle: saline with Tween-80): 181 % of control
T/C (dose: 25.0 mg/kg/injection, schedule: Q01DX009 (sc), vehicle: Klucel (hydroxypropylcellulose) (HPC)): 123 % of control
T/C (dose: 50.0 mg/kg/injection, schedule: Q01DX009 (ip), vehicle: saline with Tween-80): 103 % of control
T/C [24]: 157 % of control
T/C [4]: 170 % of control

CN(C)N=Nc1c(O)ccc2c1CCC1C2CCC2(C)C(=O)CCC12 (stereo not given)
T/C [14]: 92 % of control
T/C [15]: 94 % of control
T/C [16]: 107 % of control

CCN(CC)CC(=O)NCC(CCN1CCOCC1)(CC(C)C)c1cccc2ccccc12 (stereo not given)
T/C [17]: 111 % of control
T/C [18]: 105 % of control
T/C [4]: 96 % of control
T/C [5]: 97 % of control

CCOC(=O)C1(CC)CNCC(CC)(C(=O)OCC)C1=O (stereo not given)
T/C (dose: 50.0 mg/kg/injection, schedule: Q01DX001 (ip), vehicle: saline): 103 % of control
T/C [7]: 104 % of control
T/C [8]: 101 % of control
T/C [9]: 97 % of control

CC(O)c1cccc(Br)c1 (stereo not given)
T/C (dose: 100.0 mg/kg/injection, schedule: Q04DX002 (ip), vehicle: saline with Tween-80): 100 % of control
T/C (dose: 200.0 mg/kg/injection, schedule: Q04DX002 (ip), vehicle: saline with Tween-80): 90 % of control
T/C (dose: 400.0 mg/kg/injection, schedule: Q04DX002 (ip), vehicle: saline with Tween-80): 90 % of control

ClC1(Cl)C2CCCCC21N1CCCCC1 (stereo not given)
T/C [17]: 102 % of control
T/C [24]: 115 % of control
T/C [7]: 104 % of control
T/C [18]: 87 % of control
T/C [4]: 94 % of control
T/C [8]: 98 % of control
T/C [5]: 101 % of control

CN(C)NC(=O)/C=C/c1ccccc1
T/C [21]: 112 % of control
T/C [13]: 94 % of control
T/C [22]: 102 % of control
T/C (dose: 200.0 mg/kg/injection, schedule: Q04DX003 (ip), vehicle: Klucel (hydroxypropylcellulose) (HPC)): 100 % of control
T/C (dose: 400.0 mg/kg/injection, schedule: Q04DX003 (ip), vehicle: Klucel (hydroxypropylcellulose) (HPC)): 87 % of control

CC1(C)CC(=O)C2=C(C1)Nc1ccccc1NC2c1ccccc1 (stereo not given)
T/C [10]: 92 % of control
T/C [11]: 110 % of control and 113 % of control
T/C [12]: 92 % of control
T/C [23]: 98 % of control

COC(=O)/C=C/c1cccc([N+](=O)[O-])c1
T/C [7]: 100 % of control
T/C [8]: 100 % of control
T/C [9]: 100 % of control

COc1cc(N)c2ncccc2c1SC
T/C [18]: 108 % of control
T/C [4]: 93 % of control
T/C [19]: 107 % of control
T/C [5]: 95 % of control
T/C (dose: 400.0 mg/kg/injection, schedule: Q01DX009 (ip), vehicle: saline): 116 % of control
T/C [6]: 102 % of control

COC(=O)CNC(=O)C(Cc1ccc(O)cc1)NC(=O)OC(C)(C)C (stereo not given)
T/C (dose: 50.0 mg/kg/injection, schedule: Q01DX005 (ip), vehicle: saline): 95 % of control
T/C (dose: 100.0 mg/kg/injection, schedule: Q01DX005 (ip), vehicle: saline): 105 % of control
T/C (dose: 200.0 mg/kg/injection, schedule: Q01DX005 (ip), vehicle: saline): 96 % of control
T/C (dose: 400.0 mg/kg/injection, schedule: Q01DX005 (ip), vehicle: saline): 98 % of control
